Measured values as given in patent publication US12054494B2, “Compound with anticancer activity” (KYOWA KIRIN CO., LTD., priority 2018, dated 2024).

Assays:
[1] = test system: DLBCL strain SU-DHL-4 subcutaneously transplanted tumor; assay: Antitumor effect on subcutaneous transplant model in SCID mouse; assay type: in vivo; settings: 3 mg/kg intravenously 5 times a week for 2 weeks; male SCID mouse; versus vehicle administration group
Procedure: Antitumor Effect on Subcutaneous Transplant Model in SCID Mouse DLBCL Strain SU-DHL-4
1×10^7 cells of DLBCL strain SU-DHL-4 (Code No. ACC 495, Deutsche Sammlung von Mikroorganismen and Zellkulturen GmbH) suspended in a 1:1 mixed solution of PBS and matrigel (CORNING Code No. 354234) were transplanted subcutaneously to the ventral side of a male SCID mouse. Eighteen days after the transplantation, the body weight and the tumor diameter were measured, the tumor volume was calculated by the following formula, and the mice were divided into two groups (n=5) so that the average tumor volume of each group was equal. E-workbook software (ID Business Solusions) was used for grouping and measurement. […]
The test was conducted in two groups, a vehicle administration group and a compound 1a administration group (compound administration group). […] After the start of the test, body weight and tumor diameter were measured twice a week. The tumor volume on each measurement day was calculated by the above formula. The tumor growth rate (hereinafter referred to as V/V0) was calculated by dividing the tumor volume V on each measurement day by the tumor volume V0 on the test start day (Day 0). The T/C was calculated by dividing the average value (T) of V/V0 of each group by the average value (C) of the vehicle administration group.

[2] = Body weight in SU-DHL-4 subcutaneous transplant model; assay type: in vivo; settings: 3 mg/kg intravenously 5 times a week for 2 weeks, male SCID mouse; for Body weight: mean of n=5
Procedure: 1×10^7 cells of DLBCL strain SU-DHL-4 (Code No. ACC 495, Deutsche Sammlung von Mikroorganismen and Zellkulturen GmbH) suspended in a 1:1 mixed solution of PBS and matrigel (CORNING Code No. 354234) were transplanted subcutaneously to the ventral side of a male SCID mouse. Eighteen days after the transplantation, the body weight and the tumor diameter were measured, the tumor volume was calculated by the following formula, and the mice were divided into two groups (n=5) so that the average tumor volume of each group was equal. E-workbook software (ID Business Solusions) was used for grouping and measurement. [Tumor volume (mm^3)]=[Tumor long diameter (mm)]×[Tumor short diameter (mm)]^2×0.5
The test was conducted in two groups, a vehicle administration group and a compound 1a administration group (compound administration group). To the compound 1a administration group, a solution of compound 1a dissolved in 30% DMSO/3% Tween 80/physiological saline so as to give a final concentration of 0.6 mg/mL was administered intravenously (tail vein) at 5 mL/kg (3 mg/kg) 5 times a week for 2 weeks. To the vehicle administration group, 30% DMSO/3% Tween 80/physiological saline was administered intravenously (tail vein) at 5 mL/kg on the same schedule as the compound 1a administration group. After the start of the test, body weight and tumor diameter were measured twice a week. The tumor volume on each measurement day was calculated by the above formula. The tumor growth rate (hereinafter referred to as V/V0) was calculated by dividing the tumor volume V on each measurement day by the tumor volume V0 on the test start day (Day 0). The T/C was calculated by dividing the average value (T) of V/V0 of each group by the average value (C) of the vehicle administration group.

SU-DHL-4 cells = assay: Inhibitory effect on cell viability (Cell Counting Kit-8); assay type: cell-based; settings: Homo sapiens, 72 hours culture with test compound, concentration showing 90% inhibition rate of cell viability
Outline: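 IC90 corresponds to 90% loss of viability, measured as CCK-8 absorbance at 450 nm (2-3 h colour development). Compounds in 9 dilutions (0.1% DMSO) were applied for 72 h at 37° C to SU-DHL-4 lymphoma cells seeded at 2000/well in RPMI1640/10% FBS after 18-25 h preculture.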

With `CCC(=O)N1c2ccccc2[C@H](Nc2ccc(C(=O)NCCCNC(=O)c3ccc(N[C@@H]4C[C@H](C)N(C(=O)CC)c5ccccc54)cc3)cc2)C[C@@H]1C` (single isomer, unassigned) [Compound 1a, N,N′-(Propane-1,3-diyl)bis(4-{[(2S*,4R*)-2-methyl-1-propionyl-1,2,3,4-tetrahydroquinolin-4-yl]amino}benzamide)] the “Antitumor effect on SU-DHL-4 subcutaneously transplanted tumor (in words)” value [1] was “strong antitumor effect”, the “Weight loss (in words)” value [2] was “no weight loss was observed” and the Body weight ([2]; Day 0) was 24.56 g. The Body weight ([2]; Day 3) was 25.36 g, the Body weight ([2]; Day 7) was 25.44 g and the Body weight ([2]; Day 10) was 25.14 g. It also gave a Body weight ([2]; Day 14) of 25.74 g, a Body weight ([2]; Day 18) of 26.23 g and an IC90 (SU-DHL-4 cells) of 5.21 nM.
